Reference: ChEMBL document CHEMBL4376834, “Discovery of 4H-Chromen-4-one Derivatives as a New Class of Selective Rho Kinase (ROCK) Inhibitors, which Showed Potent Activity in ex Vivo Diabetic Retinopathy Models” (J Med Chem, 2019)

Key:
[1] = Inhibition of recombinant human DDR1 V833L mutant (492 to end residues) using KKKSPGEYVNIEF as substrate after 40 mins in presence of [gamma-33ATP] by radiometric scintillation counting analysis
[2] = Inhibition of human PIP4K2
[3] = biological target: Calcium/calmodulin-dependent protein kinase type II subunit delta (Homo sapiens, UniProt Q13557); test: Inhibition of recombinant full length human CaMK2delta using calmodulin as substrate incubated for 40 mins in presence of [gamma-33ATP] by radiometric scintillation counting analysis
[4] = biological target: Serine/threonine-protein kinase 26 (Homo sapiens, UniProt Q9P289); test: Inhibition of recombinant human MST4 (4 to 304 residues) using RLGRDKYKTLRQI as substrate measured after 40 mins in presence of [gamma33P]ATP by radiometric scintillation counting analysis
[5] = biological target: Tyrosine-protein kinase SYK (Homo sapiens, UniProt P43405); test: Inhibition of recombinant human full length SYK using poly(Glu, Tyr) 4:1 as substrate incubated for 40 mins in presence of [gamma33P]ATP by radiometric scintillation counting analysis
[6] = biological target: Serine/threonine-protein kinase SIK3 (Homo sapiens, UniProt Q9Y2K2); test: Inhibition of recombinant human SIK3 (1 to 307 residues) using KKKVSRSGLYRSP as substrate incubated for 40 mins in presence of [gamma33P]ATP by radiometric scintillation counting analysis
[7] = biological target: Mast/stem cell growth factor receptor Kit (Homo sapiens, UniProt P10721, D816H); test: Inhibition of recombinant human C-Kit D816H mutant (544 to end residues) using poly(Glu, Tyr) 4:1 as substrate incubated 40 mins in presence of [gamma-33ATP] by radiometric scintillation counting analysis
Mast/stem cell growth factor receptor Kit, sequence (P10721 26-976 D816H limits assumed): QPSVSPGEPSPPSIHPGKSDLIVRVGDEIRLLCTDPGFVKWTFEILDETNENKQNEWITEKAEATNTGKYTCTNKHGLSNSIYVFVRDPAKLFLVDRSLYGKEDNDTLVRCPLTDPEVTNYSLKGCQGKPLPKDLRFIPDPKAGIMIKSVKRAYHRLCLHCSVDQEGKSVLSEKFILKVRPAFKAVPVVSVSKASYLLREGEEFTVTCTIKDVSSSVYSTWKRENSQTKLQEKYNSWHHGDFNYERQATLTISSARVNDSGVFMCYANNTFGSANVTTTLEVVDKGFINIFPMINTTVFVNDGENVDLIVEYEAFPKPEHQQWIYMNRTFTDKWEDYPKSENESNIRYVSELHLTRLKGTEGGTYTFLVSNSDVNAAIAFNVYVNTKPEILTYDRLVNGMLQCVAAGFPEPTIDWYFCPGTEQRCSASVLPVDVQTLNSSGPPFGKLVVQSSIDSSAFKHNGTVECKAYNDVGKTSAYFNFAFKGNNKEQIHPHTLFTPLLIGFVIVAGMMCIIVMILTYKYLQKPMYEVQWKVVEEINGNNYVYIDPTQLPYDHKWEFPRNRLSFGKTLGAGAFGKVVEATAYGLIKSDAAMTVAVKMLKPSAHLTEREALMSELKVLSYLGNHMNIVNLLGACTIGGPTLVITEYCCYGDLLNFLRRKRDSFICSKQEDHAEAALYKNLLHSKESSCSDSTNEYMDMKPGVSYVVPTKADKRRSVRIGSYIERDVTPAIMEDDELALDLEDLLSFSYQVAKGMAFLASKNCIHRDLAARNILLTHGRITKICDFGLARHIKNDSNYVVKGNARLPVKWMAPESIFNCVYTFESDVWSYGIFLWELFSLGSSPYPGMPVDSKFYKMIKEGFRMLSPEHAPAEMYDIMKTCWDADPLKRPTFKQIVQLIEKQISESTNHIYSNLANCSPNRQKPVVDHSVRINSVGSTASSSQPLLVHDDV

[8] = biological target: Testis-specific serine/threonine-protein kinase 3 (Homo sapiens, UniProt Q96PN8); test: Inhibition of recombinant full-length human TSSK3 using AMARAASAAALAR as substrate incubated for 40 mins in presence of [gamma33P]ATP by radiometric scintillation counting analysis
[9] = biological target: Calcium/calmodulin-dependent protein kinase type II subunit gamma (Homo sapiens, UniProt Q13555); test: Inhibition of recombinant human CaMK2gamma (1 to 330 residues) using calmodulin as substrate incubated for 40 mins in presence of [gamma-33ATP] by radiometric scintillation counting analysis
[10] = biological target: CDK18/Cyclin Y (Homo sapiens, UniProt Q07002+Q8ND76, T166M); test: Inhibition of recombinant full length human cyclinY/CDK18 T166M mutant using YRRAAVPPSPSLS as substrate measured after 40 mins in presence of [gamma33P]ATP by radiometric scintillation counting analysis; type: protein-complex assay
[11] = biological target: High affinity nerve growth factor receptor (Homo sapiens, UniProt P04629); test: Inhibition of recombinant human TRKA (440 to end residues) using KKKSPGEYVNIEF as substrate incubated for 40 mins in presence of [gamma33P]ATP by radiometric scintillation counting analysis
[12] = biological target: Serine/threonine-protein kinase Nek2 (Homo sapiens, UniProt P51955); test: Inhibition of recombinant full-length human NEK2 using myelin basic protein as substrate measured after 40 mins in presence of [gamma33P]ATP by radiometric scintillation counting analysis
Serine/threonine-protein kinase Nek2, sequence (P51955 whole entry): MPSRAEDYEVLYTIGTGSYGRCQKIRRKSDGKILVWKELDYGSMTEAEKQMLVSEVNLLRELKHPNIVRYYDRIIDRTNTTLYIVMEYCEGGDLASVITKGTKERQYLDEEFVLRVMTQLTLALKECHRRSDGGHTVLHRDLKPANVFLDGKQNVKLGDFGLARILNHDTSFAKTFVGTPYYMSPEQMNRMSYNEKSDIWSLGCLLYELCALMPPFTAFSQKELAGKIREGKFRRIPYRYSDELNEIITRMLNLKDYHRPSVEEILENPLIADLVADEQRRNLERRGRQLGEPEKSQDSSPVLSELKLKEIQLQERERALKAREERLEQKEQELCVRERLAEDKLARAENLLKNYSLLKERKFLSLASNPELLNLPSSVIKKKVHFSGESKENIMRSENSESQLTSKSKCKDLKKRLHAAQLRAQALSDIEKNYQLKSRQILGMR

[13] = biological target: Leucine-rich repeat serine/threonine-protein kinase 2 (Homo sapiens, UniProt Q5S007); test: Inhibition of recombinant human LRRK2 (970 to end residues) using RLGRDKYKTLRQI as substrate after 40 mins in presence of [gamma-33ATP] by radiometric scintillation counting analysis
Leucine-rich repeat serine/threonine-protein kinase 2, sequence (Q5S007 whole entry): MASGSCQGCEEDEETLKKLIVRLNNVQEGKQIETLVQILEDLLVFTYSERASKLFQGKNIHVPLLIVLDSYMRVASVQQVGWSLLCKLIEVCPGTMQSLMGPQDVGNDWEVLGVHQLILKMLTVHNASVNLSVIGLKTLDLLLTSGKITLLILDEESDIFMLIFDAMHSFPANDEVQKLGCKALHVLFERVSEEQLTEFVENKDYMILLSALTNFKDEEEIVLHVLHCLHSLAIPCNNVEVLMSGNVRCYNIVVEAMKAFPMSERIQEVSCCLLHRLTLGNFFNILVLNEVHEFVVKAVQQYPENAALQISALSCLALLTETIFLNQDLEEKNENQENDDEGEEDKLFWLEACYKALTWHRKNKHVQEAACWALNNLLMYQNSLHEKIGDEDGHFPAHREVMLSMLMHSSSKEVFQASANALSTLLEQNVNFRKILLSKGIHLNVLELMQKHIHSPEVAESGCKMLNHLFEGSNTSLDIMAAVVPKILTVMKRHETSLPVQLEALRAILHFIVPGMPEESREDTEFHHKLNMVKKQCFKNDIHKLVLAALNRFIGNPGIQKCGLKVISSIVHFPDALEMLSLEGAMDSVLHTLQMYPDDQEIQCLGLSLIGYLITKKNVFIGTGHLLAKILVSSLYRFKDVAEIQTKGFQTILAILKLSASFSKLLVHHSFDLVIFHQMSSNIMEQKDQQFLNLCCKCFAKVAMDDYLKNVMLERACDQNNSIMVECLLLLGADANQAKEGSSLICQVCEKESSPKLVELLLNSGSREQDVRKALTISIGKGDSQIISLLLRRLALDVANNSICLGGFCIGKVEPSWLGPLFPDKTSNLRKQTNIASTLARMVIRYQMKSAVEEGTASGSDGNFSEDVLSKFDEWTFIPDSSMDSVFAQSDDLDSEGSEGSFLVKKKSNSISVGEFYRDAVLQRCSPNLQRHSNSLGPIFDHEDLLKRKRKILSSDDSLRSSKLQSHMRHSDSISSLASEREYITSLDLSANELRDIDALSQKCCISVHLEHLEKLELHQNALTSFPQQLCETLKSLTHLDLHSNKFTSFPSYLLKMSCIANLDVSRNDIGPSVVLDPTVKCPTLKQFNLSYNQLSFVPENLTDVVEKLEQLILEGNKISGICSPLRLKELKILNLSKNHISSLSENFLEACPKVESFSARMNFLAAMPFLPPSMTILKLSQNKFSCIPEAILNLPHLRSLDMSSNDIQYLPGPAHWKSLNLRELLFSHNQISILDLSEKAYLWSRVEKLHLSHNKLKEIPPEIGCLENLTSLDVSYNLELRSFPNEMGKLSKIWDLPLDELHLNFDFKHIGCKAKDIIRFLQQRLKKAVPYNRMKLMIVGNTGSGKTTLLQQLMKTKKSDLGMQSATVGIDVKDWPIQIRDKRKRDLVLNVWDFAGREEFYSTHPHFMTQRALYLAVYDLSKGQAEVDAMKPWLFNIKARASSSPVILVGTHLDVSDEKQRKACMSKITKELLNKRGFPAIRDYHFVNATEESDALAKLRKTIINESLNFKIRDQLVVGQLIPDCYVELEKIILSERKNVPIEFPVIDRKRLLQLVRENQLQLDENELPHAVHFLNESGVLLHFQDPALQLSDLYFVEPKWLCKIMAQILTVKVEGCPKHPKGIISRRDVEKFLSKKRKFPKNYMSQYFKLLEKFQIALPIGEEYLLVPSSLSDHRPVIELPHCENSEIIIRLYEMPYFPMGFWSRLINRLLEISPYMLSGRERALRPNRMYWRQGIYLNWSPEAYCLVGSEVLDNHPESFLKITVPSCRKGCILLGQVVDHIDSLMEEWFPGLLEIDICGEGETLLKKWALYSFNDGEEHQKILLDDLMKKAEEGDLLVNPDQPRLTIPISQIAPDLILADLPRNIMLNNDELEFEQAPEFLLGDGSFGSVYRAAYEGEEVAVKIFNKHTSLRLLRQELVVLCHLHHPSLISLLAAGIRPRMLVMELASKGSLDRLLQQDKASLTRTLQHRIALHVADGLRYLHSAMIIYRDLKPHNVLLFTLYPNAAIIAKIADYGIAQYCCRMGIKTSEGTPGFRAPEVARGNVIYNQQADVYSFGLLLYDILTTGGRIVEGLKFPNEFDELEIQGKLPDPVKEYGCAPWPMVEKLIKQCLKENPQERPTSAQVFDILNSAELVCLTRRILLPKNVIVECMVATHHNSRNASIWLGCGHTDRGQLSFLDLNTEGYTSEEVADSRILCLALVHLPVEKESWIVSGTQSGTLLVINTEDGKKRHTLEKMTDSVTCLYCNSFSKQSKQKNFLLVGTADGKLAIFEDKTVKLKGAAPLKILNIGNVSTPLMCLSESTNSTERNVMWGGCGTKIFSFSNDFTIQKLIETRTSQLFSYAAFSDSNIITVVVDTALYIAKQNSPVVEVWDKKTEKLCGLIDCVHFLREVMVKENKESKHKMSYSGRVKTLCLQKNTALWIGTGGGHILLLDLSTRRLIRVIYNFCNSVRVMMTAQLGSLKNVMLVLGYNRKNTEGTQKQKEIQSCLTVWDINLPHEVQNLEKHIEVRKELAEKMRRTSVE

[14] = biological target: RAF proto-oncogene serine/threonine-protein kinase (Homo sapiens, UniProt P04049, Y340D/Y341D); test: Inhibition of recombinant human C-Raf Y340D/Y341D double mutant (306 to end residues) using poly(Glu, Tyr) 4:1 as substrate incubated 40 mins in presence of [gamma-33ATP] by radiometric scintillation counting analysis
[15] = biological target: Myosin light chain kinase 2, skeletal/cardiac muscle (Homo sapiens, UniProt Q9H1R3); test: Inhibition of recombinant full length human MYLK2 using KKLNRTLSFAEPG as substrate measured after 40 mins in presence of [gamma33P]ATP by radiometric scintillation counting analysis
Myosin light chain kinase 2, skeletal/cardiac muscle, sequence (Q9H1R3 whole entry): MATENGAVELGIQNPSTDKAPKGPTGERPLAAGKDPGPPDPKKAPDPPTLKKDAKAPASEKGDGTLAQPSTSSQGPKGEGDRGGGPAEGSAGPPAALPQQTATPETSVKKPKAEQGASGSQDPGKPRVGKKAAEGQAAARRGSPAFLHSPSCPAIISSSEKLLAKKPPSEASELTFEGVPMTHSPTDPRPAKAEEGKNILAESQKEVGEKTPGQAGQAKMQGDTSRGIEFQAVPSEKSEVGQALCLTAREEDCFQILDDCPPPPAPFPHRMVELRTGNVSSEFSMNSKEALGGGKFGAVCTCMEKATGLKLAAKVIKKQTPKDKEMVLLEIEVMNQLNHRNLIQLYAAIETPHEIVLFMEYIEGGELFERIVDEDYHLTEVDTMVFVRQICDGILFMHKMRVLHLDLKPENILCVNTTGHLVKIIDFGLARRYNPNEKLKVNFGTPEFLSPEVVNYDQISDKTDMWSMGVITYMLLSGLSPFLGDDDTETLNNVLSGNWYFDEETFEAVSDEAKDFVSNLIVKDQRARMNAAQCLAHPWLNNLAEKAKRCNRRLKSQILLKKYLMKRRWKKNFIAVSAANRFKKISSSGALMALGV

[16] = biological target: Serine/threonine-protein kinase 3 (Homo sapiens, UniProt Q13188); test: Inhibition of recombinant human MST2 (2 to end residues) using myelin basic protein as substrate measured after 40 mins in presence of [gamma33P]ATP by radiometric scintillation counting analysis
[17] = biological target: Serine/threonine-protein kinase 33 (Homo sapiens, UniProt Q9BYT3); test: Inhibition of recombinant full-length human STK33 using myelin basic protein as substrate incubated for 40 mins in presence of [gamma33P]ATP by radiometric scintillation counting analysis
[18] = biological target: PI3-kinase p110-alpha/p85-alpha (Homo sapiens, UniProt P42336, E542K); test: Inhibition of recombinant human full length PI3K p110alpha/p85alpha E542K mutant using phosphatidylinositol 4,5-bisphosphate as substrate incubated for 40 mins in presence of [gamma33P]ATP by radiometric scintillation counting analysis
[19] = biological target: Serine/threonine-protein kinase Nek7 (Homo sapiens, UniProt Q8TDX7); test: Inhibition of recombinant human NEK7 (2 to end residues) using FLAKSFGSPNRAYKK as substrate measured after 40 mins in presence of [gamma33P]ATP by radiometric scintillation counting analysis
[20] = biological target: Cytoplasmic tyrosine-protein kinase BMX (Homo sapiens, UniProt P51813); test: Inhibition of recombinant full length human BMX using poly(Glu, Tyr) 4:1 as substrate incubated for 40 mins in presence of [gamma-33ATP] by radiometric scintillation counting analysis
[21] = biological target: STE20-like serine/threonine-protein kinase (Homo sapiens, UniProt Q9H2G2); test: Inhibition of recombinant human SLK (1 to 373 residues) using RLGRDKYKTLRQI as substrate incubated for 40 mins in presence of [gamma33P]ATP by radiometric scintillation counting analysis
[22] = biological target: Serine/threonine-protein kinase mTOR (Homo sapiens, UniProt P42345); test: Inhibition of recombinant full length human mTOR measured after 40 mins in presence of [gamma33P]ATP by radiometric scintillation counting analysis
[23] = biological target: Calcium/calmodulin-dependent protein kinase type II subunit beta (Homo sapiens, UniProt Q13554); test: Inhibition of recombinant human CaMK2beta (1 to 315 residues) using calmodulin a substrate incubated for 40 mins in presence of [gamma-33ATP] by radiometric scintillation counting analysis
[24] = biological target: Receptor-type tyrosine-protein kinase FLT3 (Homo sapiens, UniProt P36888, D835Y); test: Inhibition of recombinant human FLT3 D835Y mutant (564 to end residues) using EAIYAAPFAKKK as substrate after 40 mins in presence of [gamma-33ATP] by radiometric scintillation counting analysis
[25] = biological target: Serine/threonine-protein kinase NLK (Homo sapiens, UniProt Q9UBE8); test: Inhibition of recombinant human NLK (121 to end residues) using protein as substrate measured after 40 mins in presence of [gamma33P]ATP by radiometric scintillation counting analysis
Serine/threonine-protein kinase NLK, sequence (Q9UBE8 whole entry): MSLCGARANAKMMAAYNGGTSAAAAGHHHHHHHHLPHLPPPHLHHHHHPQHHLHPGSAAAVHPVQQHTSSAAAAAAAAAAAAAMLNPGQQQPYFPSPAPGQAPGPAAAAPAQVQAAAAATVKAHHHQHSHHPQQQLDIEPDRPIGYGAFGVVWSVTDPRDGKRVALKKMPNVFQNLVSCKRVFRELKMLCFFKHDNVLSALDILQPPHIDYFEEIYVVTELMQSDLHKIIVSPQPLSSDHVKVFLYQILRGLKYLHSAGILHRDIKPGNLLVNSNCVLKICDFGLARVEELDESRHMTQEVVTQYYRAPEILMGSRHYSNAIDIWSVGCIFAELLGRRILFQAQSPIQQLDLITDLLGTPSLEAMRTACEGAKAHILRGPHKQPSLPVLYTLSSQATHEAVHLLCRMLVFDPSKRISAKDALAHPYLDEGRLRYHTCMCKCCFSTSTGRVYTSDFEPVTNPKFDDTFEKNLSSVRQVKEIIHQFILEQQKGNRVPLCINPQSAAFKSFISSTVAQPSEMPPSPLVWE

Measured: IC50

CN(C)c1ccc(C(=O)Nc2cccc(NC(=O)COc3ccc4c(=O)ccoc4c3)c2)cc1
> 10 µM: all assays above
